In patent publication US10071987B2, “Aminomethylene pyrazolones with therapeutic activity” (Compound Handling B.V., priority 2012, dated 2018):
“And” between values parts separate entries of the source, which are not always exact repeats. Equal values may be shown once.

Tested on: PC3 cells
Experiment: Cell invasion assay (BD Biocoat Matrigel Invasion chambers, CellTiter-GLO readout)
Format: cell-based, human
Conditions: Homo sapiens, PC-3, PC3 cells incubated with compound (10 μM) for 4 days prior to assay; 48 hours invasion; versus DMSO treated cells; several values = repeated assays
Text: For determining the effectiveness of the compounds according to the invention, a model assay based on the migration of cells in a migration chamber was employed. This model is accepted in the art as providing representative data on the ability of cells to metastasize.
The PC-3 prostate cancer cell line (ATCC# CRL-1435) was maintained in RPMI-1640 medium (Invitrogen, 31870), supplemented with 10% Fetal Bovine Serum (Sigma, F7524), L-Glutamine (Invitrogen 25030-024). Cells were split once a week at a 1:10 ratio.
For cell invasion assays, PC3 cells were incubated in the presence of a compound according to the invention (10 μM) for 4 days, prior to the invasion assay. Forty thousand cells were seeded into BD Biocoat Matrigel Invasion chambers (8 micron; BD 354480) in serum-free medium. The invasion chamber was placed in a 24-well containing medium with 10% fetal calf serum as chemo-attractant. As a control, the same amount of cells was seeded in 24-well culture plates. After 48 hours incubation, cells in the invasion chamber were removed by aspiration and cleaning the inner compartment with a cotton swab. The invasion chamber was then put into CellTiter-GLO (CTG, Promega-G7571) cell viability reagent, incubated for 15 minutes, and then analyzed on a Victor3 luminometer. Cell invasion was calculated as the CTG activity on the lower part of the membrane divided by the CTG activity of the cells grown in a 24 well plate. Inhibition of cell invasion by a specific compound was estimated by comparing the amount of cell invasion of compound-treated cells versus DMSO treated cells.

| Structure (SMILES) | inhibition at 10 µM |
| --- | --- |
| COc1ccc2nc(N3N=C(c4ccccc4)/C(=C\N)C3=O)sc2c1 | 70% |
| N/C=C1/C(=O)N(c2nc3ccc(Cl)cc3s2)N=C1c1ccccc1 | 89% |
| Cc1ccc2nc(N3N=C(c4cccc(C(F)(F)F)c4)/C(=C\N)C3=O)sc2c1 | 67% |
| N/C=C1/C(=O)N(c2nc3ccc([N+](=O)[O-])cc3s2)N=C1c1cccc(C(F)(F)F)c1 | 73% |
| N/C=C1/C(=O)N(c2nc3ccccc3s2)N=C1c1cccc(I)c1 | 86% |
| CC1=NN(c2nc3ccccc3s2)C(=O)/C1=C/N1CCCCC1 | 88% |
| N/C=C1/C(=O)N(c2nc3ccccc3s2)N=C1c1ccc(Br)s1 | 57% |
| N/C=C1/C(=O)N(c2nc3ccccc3s2)N=C1c1ccccc1 | 52% |
| COc1ccc(CN/C=C2/C(=O)N(c3nc4ccccc4s3)N=C2c2ccccc2)cc1 | 35% |
| CN/C=C1/C(=O)N(c2nc3ccccc3s2)N=C1c1cccs1 | 75% |
| C/C(NCc1ccc(Cl)c(Cl)c1)=C1\C(=O)N(c2nc3ccccc3s2)N=C1C(F)(F)F | 56% |
| N/C=C1/C(=O)N(c2nc3ccccc3s2)N=C1c1cccc(Br)c1 | 87% |
| N/C=C1/C(=O)N(c2nc3ccccc3s2)N=C1c1cccc(Cl)c1 | 91% |
| N/C=C1/C(=O)N(c2nc3ccccc3s2)N=C1c1cc2ccccc2s1 | 76% |
| Cc1ccc(C2=NN(c3nc4ccccc4s3)C(=O)/C2=C/N)cc1Br | 57% |
| N/C=C1/C(=O)N(c2nc3ccccc3s2)N=C1c1cccc(C(F)(F)F)c1 [drawing 33] | 91% |

Same assay, conditions: PC3 cells incubated with compound (10 μM) for 4 days prior to assay; 48 hours invasion; versus DMSO treated cells; several values = repeated assays; 10 µM

| Structure (SMILES) | Results % inhibition of invasion in invasion assays |
| --- | --- |
| N/C=C1/C(=O)N(c2nc3ccccc3s2)N=C1c1cccc(C(F)(F)F)c1 [drawing 36] | 89% and 82% and 78% |
| N/C=C1/C(=O)N(c2nc3ccccc3s2)N=C1c1ccccc1 | 49% and 45% |
| N/C=C1/C(=O)N(c2nc3ccccc3s2)N=C1c1cccc(Br)c1 | 76% |

Tested on: PC-3M-Pro4luc+ cells
Experiment: Formation of de novo skeletal metastases in mice, whole body bioluminescence imaging
Format: in vivo
Conditions: treatment of mice
Text: Treatment of mice with 4-[1-aminomethylidene]-2-benzothiazol-2-yl-5-phenyl-2,4-dihydro-pyrazol-3-one decreased the number of bone lesions and metastatic tumor burden. Cancer cells and tumor burden were monitored by whole body bioluminescence imaging. […] Such in vivo testing may lead to further selection, preference, deselection or disfavor of individual compounds for further programs for development of a compound for use in a prescription medicine. A particular compound of interest for such advanced testing is, 4-(aminomethylene)-2-(2-benzothiazolyl)-2,4-dihydro-5-(3-chlorophenyl)-3H-pyrazol-3-one.

| Structure (SMILES) | metastatic tumor burden | number of bone lesions |
| --- | --- | --- |
| NC=C1C(=O)N(c2nc3ccccc3s2)N=C1c1ccccc1 [Example 2, 4-[1-Aminomethylidene]-2-benzothiazol-2-yl-5-phenyl-2,4-dihydro-pyrazol-3-one] | decreased | decreased |
